Test results as given in patent US5169856A, “Piperidinoalkyl derivatives of carboxylic acid amides” (priority 1988, dated 1992).
Counter-ions that a name gives are not always drawn.

Biological target: T1, acetylcholinesterase (Rattus norvegicus, UniProt P37136)
T1 construct: S1 fraction of the cerebral cortex of male Wistar rats, the enzyme source; from tissue; host or cells: S1 fraction of the cerebral cortex of male Wistar rats
Experiment: Inhibition of cholinesterase activity, radiometric ([acetyl-3H]-acetylcholine), S1 fraction of rat cerebral cortex
Type: biochemical, male Wistar rats
Settings: 15 min preincubation at room temperature, [acetyl-3H]-acetylcholine final 200 μM, 30 min, read-out: Anti-acetylcholinesterase activity IC50
Protocol: Cholinesterase activity was measured radiometrically by the method of Johnson and Russell^1), modified by Kleinberger and Yanal^2), with a slight modification.
S1 fraction of the cerebral cortex of male Wistar rats, the enzyme source, was preincubated in a scintillation vial with drugs for 15 min at room temperature, and then [acetyl-^3 H]-acetylchollne (final 200 μM) was added and incubated further for 30 min. The reaction was terminated by adding solution containing 1 M chloroacetic acid, followed by toluene-based scintillant, and the vials were capped and shaken to transfer the product, [^3 H]-acetic acid, to toluene phase. Then radioactivity in the toluene phase was counted by liquid scintillation spectrometry. Inhibitory activity of the test drug was expressed by 50%-inhibitory concentration (IC50), which was calculated by linear regression of log-probit transformation of the inhibition curve.

T1 sequence (P37136 32-614): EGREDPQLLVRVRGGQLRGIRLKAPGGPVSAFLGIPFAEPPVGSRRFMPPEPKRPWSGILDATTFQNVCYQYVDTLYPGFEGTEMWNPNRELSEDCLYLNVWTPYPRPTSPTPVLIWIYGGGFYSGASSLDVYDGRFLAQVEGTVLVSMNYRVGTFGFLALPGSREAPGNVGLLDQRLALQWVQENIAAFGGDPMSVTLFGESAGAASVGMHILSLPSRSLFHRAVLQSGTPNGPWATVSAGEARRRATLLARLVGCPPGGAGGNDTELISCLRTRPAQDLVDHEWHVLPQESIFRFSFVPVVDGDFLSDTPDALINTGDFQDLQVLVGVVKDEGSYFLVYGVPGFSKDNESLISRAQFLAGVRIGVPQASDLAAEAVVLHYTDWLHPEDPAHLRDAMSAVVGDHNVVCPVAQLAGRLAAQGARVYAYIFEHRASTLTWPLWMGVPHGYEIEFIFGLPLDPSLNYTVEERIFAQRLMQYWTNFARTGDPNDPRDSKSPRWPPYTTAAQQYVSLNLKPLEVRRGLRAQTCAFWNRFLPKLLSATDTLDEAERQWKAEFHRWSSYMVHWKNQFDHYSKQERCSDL

Compound | IC50 [µM]
O=C(/C=C/c1ccccc1)NCCC1CCN(Cc2ccccc2)CC1 [Example 1, (E)-3-Phenyl-N-[2-(1-benzylpiperidin-4-yl)ethyl]-2propenamide.hydrochloride] | 9.6
COc1cc2c(cc1OC)CCC(C(=O)NCCC1CCN(Cc3ccccc3)CC1)=C2 [Example 4-7] | 1.2
O=C(C=Cc1ccc(Cl)cc1)NCCC1CCN(Cc2ccccc2)CC1 [Example 4-12] | 9.2
N#Cc1ccc(C=CC(=O)NCCC2CCN(Cc3ccccc3)CC2)cc1 [Example 4-9] | 3.3
CC(=Cc1ccccc1)C(=O)NCCC1CCN(Cc2ccccc2)CC1 [Example 4-1] | 8.1
O=C(C=Cc1ccc([N+](=O)[O-])cc1)NCCC1CCN(Cc2ccccc2)CC1 [Example 4-8] | 2.8
COc1ccc(C=CC(=O)NCCC2CCN(Cc3ccccc3)CC2)cc1OC [Example 4-6] | 2.6
Cc1ccc(C=CC(=O)NCCC2CCN(Cc3ccccc3)CC2)cc1 [Example 4-11] | 15
O=C(C=Cc1cccnc1)NCCC1CCN(Cc2ccccc2)CC1 [Example 4-3] | 2
CC(=O)N(CCC1CCN(Cc2ccccc2)CC1)C(=O)/C=C/c1ccccc1 [Example 3, (E)-3-Phenyl-N-acetyl-N-[2-(1-benzylpiperidin-4yl)ethyl]-2-propenamide.hydrochloride] | 0.64
O=C(C=Cc1ccco1)NCCC1CCN(Cc2ccccc2)CC1 [Example 4-4] | 9.9
O=C(C=Cc1cccs1)NCCC1CCN(Cc2ccccc2)CC1 [Example 4-5] | 13
O=C(NCCC1CCN(Cc2ccccc2)CC1)C(=Cc1ccccc1)c1ccccc1 [Example 4-2] | 3.5
CS(=O)(=O)c1ccc(C=CC(=O)NCCC2CCN(Cc3ccccc3)CC2)cc1 [Example 4-10] | 1.6
CN(CCC1CCN(Cc2ccccc2)CC1)C(=O)/C=C/c1ccccc1 [Example 2, (E)-3-Phenyl-N-methyl-N-[2-(1-benzylpiperidin-4-yl)ethyl]-2-propenamide.hydrochloride] | 18
